target: CD137 (Homo sapiens, UniProt Q07011); assay: CD137 reporter assay, co-culture with PD-L1 expressing cell line RKO; assay type: cell-based; parameters: host or cells: Jurkat reporter cells; details: tumour target PD-L1, co-culture with RKO, 6 h
Description: Culture medium referred to as R1 media is prepared by adding 1% FBS to RPMI-1640 (component of Promega kit CS196005). Serial dilutions of test articles in R1 are prepared in a sterile 96 well-plate. Use 25 μl per well of test articles or R1 (as a background control) to designated wells in white cell culture plate. Tumour cells* are harvested and resuspended at a concentration of 400,000 cells/mL in R1 media. Twenty five (25) μL/well tumour cells are used in white cell culture plate. Jurkat cells (Promega kit CS196005, 0.5 mL) are thawed in the water bath and then added to 5 ml pre-warmed R1 medium. Twenty five (25) μL/well Jurkat cells are used in white cell culture plate. Incubate the cells and test articles for 6h at 37° C., 5% CO2. At the end of 6 h, add 75 μl/well Bio-Glo™ (Promega) and incubate for 10 min before reading luminescence in a plate reader (Clariostar, BMG). The fold change relative to cells (Jurkat cells+Cell line used in co-culture) is calculated and plotted in GraphPad Prism as log(agonist) vs response to determine EC50 (nM) and Fold Induction over background (Max)

CD137, sequence (Q07011 24-255): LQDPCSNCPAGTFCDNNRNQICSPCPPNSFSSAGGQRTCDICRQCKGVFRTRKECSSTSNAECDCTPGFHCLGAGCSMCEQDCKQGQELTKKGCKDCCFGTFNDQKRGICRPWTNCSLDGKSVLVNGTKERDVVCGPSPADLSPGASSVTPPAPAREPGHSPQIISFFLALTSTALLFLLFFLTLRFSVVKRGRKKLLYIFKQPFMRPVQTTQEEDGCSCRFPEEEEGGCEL

SMILES | Fold Induction over Background | EC50
CCCC[C@@H]1NC(=O)[C@H](Cc2ccc(O)cc2)NC(=O)[C@@H]2CCCN2C(=O)[C@H](CC(=O)O)NC(=O)[C@H](C)NC(=O)[C@H](Cc2ccccc2)NC(=O)[C@@H]2CSCCC(=O)N3CN(CN(C3)C(=O)CCSC[C@@H](C(=O)N[C@@H](C)C(N)=O)NC1=O)C(=O)CCSC[C@H](NC(C)=O)C(=O)N[C@@H](CC(C)(C)C)C(=O)N1CCC[C@H]1C(=O)N[C@@H](CCC(=O)O)C(=O)N[C@H](CCCCNC(=O)CCOCCOCCOCCOCCOCCOCCOCCOCCOCCOCCOCCOCCn1cc(CCC(=O)NCCCC[C@@H]3NC(=O)[C@H](CCC(N)=O)NC(=O)[C@@H]4CSCCC(=O)N5CN(CN(C5)C(=O)CCSC[C@@H](C(=O)N5CCC[C@H]5C(=O)N[C@@H](CO)C(=O)N[C@@H](Cc5c[nH]cn5)C(N)=O)NC(=O)[C@H](CC(C)C)NC(=O)[C@H](Cc5c[nH]cn5)NC(=O)[C@H](CC(C)C)NC3=O)C(=O)CCSC[C@H](NC(=O)[C@H](CCCCN)NC(=O)[C@H](CC(=O)O)NC(=O)[C@H](CO)NC(C)=O)C(=O)N[C@@H](CO)C(=O)N[C@@H](C)C(=O)NCC(=O)N[C@@H](Cc3c[nH]c5ccccc35)C(=O)N[C@@H](CC(C)C)C(=O)N[C@@H]([C@@H](C)O)C(=O)N[C@@H](CCSC)C(=O)N4)nn1)C(=O)N1CCC[C@H]1C(=O)N[C@@H](Cc1ccc(O)cc1)C(=O)N2 [BCY11018] | 7 fold | 
CCCC[C@@H]1NC(=O)[C@H](Cc2ccc(O)cc2)NC(=O)[C@@H]2CCCN2C(=O)[C@H](CC(=O)O)NC(=O)[C@H](C)NC(=O)[C@H](Cc2ccccc2)NC(=O)[C@@H]2CSCCC(=O)N3CN(CN(C3)C(=O)CCSC[C@@H](C(=O)N[C@@H](C)C(N)=O)NC1=O)C(=O)CCSC[C@H](NC(C)=O)C(=O)N[C@@H](CC(C)(C)C)C(=O)N1CCC[C@H]1C(=O)N[C@@H](CCC(=O)O)C(=O)N[C@H](CCCCNC(=O)CCOCCOCCOCCOCCOCCn1cc(CCC(=O)NCCCC[C@@H]3NC(=O)[C@H](CCC(N)=O)NC(=O)[C@@H]4CSCCC(=O)N5CN(CN(C5)C(=O)CCSC[C@@H](C(=O)N5CCC[C@H]5C(=O)N[C@@H](CO)C(=O)N[C@@H](Cc5c[nH]cn5)C(N)=O)NC(=O)[C@H](CC(C)C)NC(=O)[C@H](Cc5c[nH]cn5)NC(=O)[C@H](CC(C)C)NC3=O)C(=O)CCSC[C@H](NC(=O)[C@H](CCCCN)NC(=O)[C@H](CC(=O)O)NC(=O)[C@H](CO)NC(C)=O)C(=O)N[C@@H](CO)C(=O)N[C@@H](C)C(=O)NCC(=O)N[C@@H](Cc3c[nH]c5ccccc35)C(=O)N[C@@H](CC(C)C)C(=O)N[C@@H]([C@@H](C)O)C(=O)N[C@@H](CCSC)C(=O)N4)nn1)C(=O)N1CCC[C@H]1C(=O)N[C@@H](Cc1ccc(O)cc1)C(=O)N2 [BCY11380] | 7 fold | 
CCCC[C@@H]1NC(=O)[C@H](Cc2ccc(O)cc2)NC(=O)[C@@H]2CCCN2C(=O)[C@H](CC(=O)O)NC(=O)[C@H](C)NC(=O)[C@H](Cc2ccccc2)NC(=O)[C@@H]2CSCCC(=O)N3CN(CN(C3)C(=O)CCSC[C@@H](C(=O)N[C@@H](CNC(=O)CCOCCOCCOCCOCCOCCOCCOCCOCCOCCOCCOCCOCCn3cc(CCC(=O)NCCCC[C@@H]4NC(=O)[C@H](CCC(N)=O)NC(=O)[C@@H]5CSCCC(=O)N6CN(CN(C6)C(=O)CCSC[C@H](NC(=O)[C@H](CCCCN)NC(=O)[C@H](CC(=O)O)NC(=O)[C@@H](N)CO)C(=O)N[C@@H](CO)C(=O)N[C@@H](C)C(=O)NCC(=O)N[C@@H](Cc6c[nH]c7ccccc67)C(=O)N[C@@H](CC(C)C)C(=O)N[C@@H]([C@@H](C)O)C(=O)N[C@@H](CCSC)C(=O)N5)C(=O)CCSC[C@@H](C(N)=O)NC(=O)[C@H](CC(C)C)NC(=O)[C@H](Cc5c[nH]cn5)NC(=O)[C@H](CC(C)C)NC4=O)nn3)C(N)=O)NC1=O)C(=O)CCSC[C@H](NC(C)=O)C(=O)N[C@@H](CC(C)(C)C)C(=O)N1CCC[C@H]1C(=O)N[C@@H](CCC(=O)O)C(=O)N[C@H](C)C(=O)N1CCC[C@H]1C(=O)N[C@@H](Cc1ccc(O)cc1)C(=O)N2 [BCY10582] | 4 fold | 28 nM
CCCC[C@@H]1NC(=O)[C@H](Cc2ccc(O)cc2)NC(=O)[C@@H]2CCCN2C(=O)[C@H](CC(=O)O)NC(=O)[C@H](C)NC(=O)[C@H](Cc2ccccc2)NC(=O)[C@@H]2CSCCC(=O)N3CN(CN(C3)C(=O)CCSC[C@@H](C(=O)N[C@@H](CNC(=O)CCOCCOCCOCCOCCOCCOCCOCCOCCOCCOCCOCCOCCn3cc(CCC(=O)NCCCC[C@H](NC(=O)CN(C)C(=O)CN(C)C(=O)CN(C)C(=O)CN(C)C(=O)CN(C)C(=O)CN(C)C(=O)CN(C)C(=O)CN(C)C(=O)CN(C)C(=O)CN(C)C(=O)[C@@H]4CSCCC(=O)N5CN6CN(C5)C(=O)CCSC[C@H](NC(=O)[C@H](CCSC)NC(=O)[C@H]([C@@H](C)O)NC(=O)[C@H](CC(C)C)NC(=O)[C@H](Cc5c[nH]c7ccccc57)NC(=O)CNC(=O)[C@H](C)NC(=O)[C@H](CO)NC(=O)[C@@H](NC(=O)[C@H](CCCCN)NC(=O)[C@H](CC(=O)O)NC(=O)[C@@H](N)CO)CSCCC6=O)C(=O)N[C@@H](CCC(N)=O)C(=O)N[C@@H](CCCCN)C(=O)N[C@@H](CC(C)C)C(=O)N[C@@H](Cc5c[nH]cn5)C(=O)N[C@@H](CC(C)C)C(=O)N4)C(N)=O)nn3)C(N)=O)NC1=O)C(=O)CCSC[C@H](NC(C)=O)C(=O)N[C@@H](CC(C)(C)C)C(=O)N1CCC[C@H]1C(=O)N[C@@H](CCC(=O)O)C(=O)N[C@H](C)C(=O)N1CCC[C@H]1C(=O)N[C@@H](Cc1ccc(O)cc1)C(=O)N2 [BCY10581] | 6 fold | 18 nM
CCCC[C@@H]1NC(=O)[C@H](Cc2ccc(O)cc2)NC(=O)[C@@H]2CCCN2C(=O)[C@H](CC(=O)O)NC(=O)[C@H](C)NC(=O)[C@H](Cc2ccccc2)NC(=O)[C@@H]2CSCCC(=O)N3CN(CN(C3)C(=O)CCSC[C@@H](C(=O)N[C@@H](CNC(=O)CCOCCOCCOCCOCCOCCOCCOCCOCCOCCOCCOCCOCCn3cc(CCC(=O)NCCC(=O)N(C)CC(=O)N(C)CC(=O)N(C)CC(=O)N(C)CC(=O)N(C)CC(=O)N(C)CC(=O)N(C)CC(=O)N(C)CC(=O)N(C)CC(=O)N(C)CC(=O)N[C@@H](CO)C(=O)N[C@@H](CC(=O)O)C(=O)N[C@@H](CCCCN)C(=O)N[C@H]4CSCCC(=O)N5CN6CN(C5)C(=O)CCSC[C@H](NC(=O)[C@H](CCSC)NC(=O)[C@H]([C@@H](C)O)NC(=O)[C@H](CC(C)C)NC(=O)[C@H](Cc5c[nH]c7ccccc57)NC(=O)CNC(=O)[C@H](C)NC(=O)[C@H](CO)NC4=O)C(=O)N[C@@H](CCC(N)=O)C(=O)N[C@@H](CCCCN)C(=O)N[C@@H](CC(C)C)C(=O)N[C@@H](Cc4c[nH]cn4)C(=O)N[C@@H](CC(C)C)C(=O)N[C@H](C(N)=O)CSCCC6=O)nn3)C(N)=O)NC1=O)C(=O)CCSC[C@H](NC(C)=O)C(=O)N[C@@H](CC(C)(C)C)C(=O)N1CCC[C@H]1C(=O)N[C@@H](CCC(=O)O)C(=O)N[C@H](C)C(=O)N1CCC[C@H]1C(=O)N[C@@H](Cc1ccc(O)cc1)C(=O)N2 [BCY10580] | 3 fold | 28 nM

— patent US11453703B2, “Heterotandem bicyclic peptide complexes” (BicycleTX Limited, priority 2018, dated 2022)
